Measurements as given in patent publication US20260265199A1, “CRYSTALLINE FORMS OF (R)-2-AMINO-5-(4-(2-(3,5-DIFLUOROPHENYL)-2-HYDROXYACETAMIDO)-2-METHYLPHENYL)-N-ISOPROPYLNICOTINAMIDE AND METHODS FOR USING THE SAME” (HIBERCELL, INC., priority 2023, published 2026).
Where a name gives a salt, the structure may show the parent alone. Read-outs that look alike come from different tables or passages of the source.

Legend:
Assay type in all cases: physicochemical
[1] = Variable temperature study of Form B (cycling DSC, VT-XRPD)
Experimental: XRPD patterns were collected with a PANalytical X'Pert PRO MPD diffractometer using an incident beam of Cu Kα radiation produced using a long, fine-focus source and a nickel filter. The diffractometer was configured using the symmetric Bragg-Brentano geometry. Data were collected and analyzed using Data Collector software v. 5.5. Prior to the analysis, a silicon specimen (NIST SRM 640e) was analyzed to verify the observed position of the Si 111 peak is consistent with the NIST-certified position. A specimen of the sample was packed in a nickel-coated copper well. Anti-scatter slits (SS) were used to minimize the background generated by air scattering. Soller slits for the incident and diffracted beams were used to minimize broadening from axial divergence. Diffraction patterns were collected using a scanning position-sensitive detector (X'Celerator) located 240 mm from the sample. The data acquisition parameters for each pattern are disclosed, including the divergence slit (DS) and the incident-beam SS.
An Anton Paar TTK 450 stage was used to collect in-situ XRPD patterns as a function of temperature. The sample was heated with a resistance heater located directly under the sample holder, and the temperature was monitored with a platinum-100 resistance sensor located in the specimen holder. The heater was powered and controlled by an Anton Paar TCU 100 interfaced with Data Collector.
DSC was performed using a Mettler-Toledo DSC3+ differential scanning calorimeter. A tau lag adjustment was performed with indium, tin, and zinc. The temperature and enthalpy were adjusted with octane, phenyl salicylate, indium, tin, and zinc. The adjustment was then verified with octane, phenyl salicylate, indium, tin, and zinc. The sample was placed into a hermetically sealed aluminum DSC pan, and the weight was accurately recorded. The pan was then inserted into the DSC cell. A weighed aluminum pan configured as the sample pan was placed on the reference side of the cell. The pan lid was pierced prior to sample analysis. Samples were analyzed from −30° C. to 250° C. @ 10°/min. The cyclic DSC method heated from −30° C. to 100° C., returned to −30° C., then heated to 250° C. at 10°/min.
The thermal events associated with heating Form B, prepared according to Example 30, were further investigated by cycling DSC and variable temperature XRPD (FIG. 33 and FIG. 34, respectively). […] This phase transition was confirmed by VT-XRPD (see the diffraction pattern obtained at 100° C. in FIG. 34). During the first DSC cooling cycle, an exotherm at approximately 35° C. was observed. […] During the final DSC heating cycle, Form B first undergoes a phase transition to Material F at approximately 67° C. (endotherm). […] (endotherm) and immediately recrystallize as Form A (exotherm onset at approximately 164° C.). […] Determining which solid form was obtained after recrystallization was confirmed by VT-XRPD (the pattern obtained at approximately 175° C., FIG. 34).
It is believed that this solid state behavior can be explained due to the relative stability of Form B and Material F is reversed in passing the transition temperature. For enantiotropic systems where hysteresis is minimal within the timescale measured, the transition temperature must lie between the onset temperatures of the observed endotherm and exotherm. Therefore, a transition temperature of ~49° C. was estimated from the thermogram with the use of the lever rule.
The XRPD acquisition parameters used to collect the VT-XRPD data presented in Table 33 are as follows: X-ray Tube: Cu (1.54059 Å); voltage: 45 kV; amperage: 40 mA; scan range: 3.50-29.99° 2θ; step size: 0.017° 2θ; scan speed: 1.7° per minute; slit: DS: fixed slit ¼°; SS: fixed slit: ½°; revolution time: 0.0 null; and mode: reflection. The XRPD data collection times for the experiment are specified in Table 33.

[2] = Solubility of mono-fumarate Form A estimated by solvent addition, visual assessment
Source text: The solubility of Form A of the mono-fumarate salt of the compound of formula (I) was estimated using solvent addition method via visual assessment of the samples.

[3] = Slurry study of Form A of the mono-fumarate salt (XRPD of solids)
Experimental: XRPD patterns of samples were collected using with an X-ray diffractometer (Bruker D8 advance). The system was equipped with LynxEye detector. Samples were scanned from 3 to 40° 2θ, at a step size 0.02° 2θ. The tube voltage and current were 40 KV and 40 mA, respectively.
Slurry studies were conducted using 12 solvents at RT or 50° C. Solid samples were collected by filtration and analyzed by XRPD at a specific time.

[4] = Physical stability of Form C at ambient conditions (XRPD)
Experimental: The initial samples were then analyzed by XRPD. Thereafter, the vials were sealed and the samples were allowed to sit at ambient conditions for 9, 13, or 25 days (as designated in Table 35). The samples were then reanalyzed by XRPD.

Cc1cc(NC(=O)[C@H](O)c2cc(F)cc(F)c2)ccc1-c1cnc(N)c(C(=O)NC(C)C)c1 [Form B, (R)-2-amino-5-(4-(2-(3,5-difluorophenyl)-2-hydroxyacetamido)-2-methylphenyl)-N-isopropylnicotinamide]
Result (VT-XRPD) ([1]; 30° C., 1st scan in table order): Form B
Result (VT-XRPD) ([1]; 30° C., 4th scan in table order): Material F
Result (VT-XRPD) ([1]; 30° C., 8th scan in table order): Form A
Result (VT-XRPD) ([1]; 75° C., 2nd scan in table order): Form B
Result (VT-XRPD) ([1]; 75° C., 5th scan in table order): Material F
Result (VT-XRPD) ([1]; 100° C., 3rd scan in table order): Material F
Result (VT-XRPD) ([1]; 100° C., 6th scan in table order): Material F
Result (VT-XRPD) ([1]; 175° C., 7th scan in table order): Form A^1
Relative stability of Form B vs Material F (enantiotropes) ([1]; below the transition temperature): more stable, relative to Material F, below the transition temperature

Cc1cc(NC(=O)[C@H](O)c2cc(F)cc(F)c2)ccc1-c1cnc(N)c(C(=O)NC(C)C)c1 [Form A of the mono-fumarate salt, (R)-2-amino-5-(4-(2-(3,5-difluorophenyl)-2-hydroxyacetamido)-2-methylphenyl)-N-isopropylnicotinamide]
solubility ([2]; EtOAc, organic solvent or mixture, thermodynamic from solid, EtOAc, read-out: Solubility): > 3 mg/mL
solubility ([2]; EtOH, organic solvent or mixture, thermodynamic from solid, EtOH, read-out: Solubility): > 22.5 mg/mL
solubility ([2]; IPA, organic solvent or mixture, thermodynamic from solid, IPA, read-out: Solubility): > 23.4 mg/mL
solubility ([2]; IPAc, organic solvent or mixture, thermodynamic from solid, IPAc, read-out: Solubility): > 2.1 mg/mL
solubility ([2]; MEK, organic solvent or mixture, thermodynamic from solid, MEK, read-out: Solubility): > 11.7 mg/mL
solubility ([2]; MTBE, organic solvent or mixture, thermodynamic from solid, MTBE, read-out: Solubility): > 4.2 mg/mL
solubility ([2]; MeCN, organic solvent or mixture, thermodynamic from solid, MeCN, read-out: Solubility): > 2.2 mg/mL
solubility ([2]; MeOH): >53.2 mg/mL
solubility ([2]; MeOH, organic solvent or mixture, thermodynamic from solid, MeOH, read-out: Solubility): > 50 mg/mL
solubility ([2]; THF): >52.6 mg/mL
solubility ([2]; THF, organic solvent or mixture, thermodynamic from solid, THF, read-out: Solubility): > 50 mg/mL
solubility ([2]; acetone, organic solvent or mixture, thermodynamic from solid, Acetone, read-out: Solubility): > 13.4 mg/mL
solubility ([2]; heptane, organic solvent or mixture, thermodynamic from solid, Heptane, read-out: Solubility): < 1 mg/mL
solubility ([2]; isobutanol, organic solvent or mixture, thermodynamic from solid, Isobutanol, read-out: Solubility): > 11.1 mg/mL
solubility ([2]; toluene, organic solvent or mixture, thermodynamic from solid, Toluene, read-out: Solubility): < 1.1 mg/mL
solubility ([2]; water, thermodynamic from solid, Water, read-out: Solubility): < 1.1 mg/mL
XRPD result after slurry ([3]; 2-Butanone, 50° C., 2 days): Mono-fumarate Form A
XRPD result after slurry ([3]; 2-Butanone, room temperature, 5 days): Mono-fumarate Form A
XRPD result after slurry ([3]; Acetone, 50° C., 2 days): Mono-fumarate Form A
XRPD result after slurry ([3]; Acetone, room temperature, 5 days): Mono-fumarate Form A
XRPD result after slurry ([3]; EtOAc, 50° C., 2 days): Low crystallinity
XRPD result after slurry ([3]; EtOAc, room temperature, 5 days): Low crystallinity
XRPD result after slurry ([3]; EtOH, room temperature, 5 days): Solid
XRPD result after slurry ([3]; Heptane, 50° C., 2 days): Mono-fumarate Form A
XRPD result after slurry ([3]; Heptane, room temperature, 5 days): Mono-fumarate Form A
XRPD result after slurry ([3]; IPA, 50° C., 2 days): Hemi-fumarate Form A
XRPD result after slurry ([3]; IPA, room temperature, 5 days): Hemi-fumarate Form A
XRPD result after slurry ([3]; IPAc, 50° C., 2 days): Hemi-fumarate Form A
XRPD result after slurry ([3]; IPAc, room temperature, 5 days): Low crystallinity
XRPD result after slurry ([3]; Isobutanol, 50° C., 2 days): Hemi-fumarate Form A
XRPD result after slurry ([3]; Isobutanol, room temperature, 5 days): Hemi-fumarate Form A
XRPD result after slurry ([3]; MTBE, 50° C., 2 days): Hemi-fumarate Form A
XRPD result after slurry ([3]; MTBE, room temperature, 5 days): Low crystallinity
XRPD result after slurry ([3]; MeCN, room temperature, 5 days): Low crystallinity
XRPD result after slurry ([3]; Toluene, 50° C., 2 days): Hemi-fumarate Form A
XRPD result after slurry ([3]; Toluene, room temperature, 5 days): Low crystallinity
XRPD result after slurry ([3]; Water, 50° C., 2 days): Alternative pattern
XRPD result after slurry ([3]; Water, room temperature, 5 days): Alternative pattern

Cc1cc(NC(=O)[C@H](O)c2cc(F)cc(F)c2)ccc1-c1cnc(N)c(C(=O)NC(C)C)c1 [Form C, (R)-2-amino-5-(4-(2-(3,5-difluorophenyl)-2-hydroxyacetamido)-2-methylphenyl)-N-isopropylnicotinamide]
Result (XRPD) ([4]; Acetone, ambient conditions, stored for 13 days): Form B (FIG. 38B)
Result (XRPD) ([4]; Acetone, initial sample): Form B + Form C
Result (XRPD) ([4]; MeCN, ambient conditions, stored for 25 days): Form B (FIG. 38D)
Result (XRPD) ([4]; MeCN, initial sample): Form C (FIG. 38C)
Result (XRPD) ([4]; MeCN/water, ambient conditions, stored for 9 days): Form C + Form B
Result (XRPD) ([4]; MeCN/water, initial sample): Form C (FIG. 38E)
Physical stability of Form C (XRPD) ([4]; ambient conditions, irrespective of solvent system used to prepare Form C): desolvates and either partially converts or fully converts to Form B within days
Solid form (XRPD) after storage ([4]; sample obtained from acetonitrile and water, ambient conditions, 9 days): mixture of Form B and Form C
Solid form (XRPD) after storage ([4]; sample obtained from acetonitrile, ambient conditions, 25 days): Form B
